Columns and labels:
[1] = in vitro stability in PBS or murine serum (radio-HPLC); assay type: in vitro ADME
Experimental: (§1) [^18F]21 or [^177Lu]21 (50 μCi, 10 μL) was added to PBS (90 μL) or murine serum (90 μL) and the mixture was incubated at 37 °C for a certain time ([^18F]21: 2 h, [^177Lu]21: 8 d). The PBS mixture was injected directly into the radio-HPLC for analysis. The murine serum was precipitated with 0.1 mL of acetonitrile and centrifuged (10,000 rpm, 5 min). The supernatant was measured and analyzed by the radio-HPLC to determine the stability. For in vivo stability study, the radio tracers were injected into the tail vein of ICR mice and samples of blood were collected after a certain time post injection (pi) ([^18F]21: 4 h, [^177Lu]21: 9 h). The plasma proteins were precipitated using an equal volume of acetonitrile and centrifuged (10,000 rpm, 5 min). The RCP of radio tracer in supernatants were analyzed and quantified by radio-HPLC. The radio-HPLC method was as follows: A: 0.1% TFA in H2O, B: ACN, 0–10 min, 0–100% B. The flow rate was 1 mL/min, and the C18 column (4.6 × 150 mm, 5 μm, ZORBAX, Agilent) was used. When using HPLC to assess the stability of [^177Lu]21, the effluent was collected every 30 s due to its less radioactivity, and samples were measured by an automatic γ-counter (2480 Wizard2, Perkin Elmer). The counted samples were plotted as intensity (cpm) against fraction.

[2] = tested on: HT-1080-FAP xenografts; test: radionuclide treatment of HT-1080-FAP xenografts; assay type: in vivo, BALB/C-nu/nu mice
Experimental: (§2) All animal experiments were conducted in compliance with a protocol approved by the First Affiliated Hospital of Sun Yat-sen University Institutional Animal Care and Use Committee. BALB/C-nu/nu mice (4–5-week old with body weight of 16–22 g) were purchased from GemPharmatech Co., Ltd. Mice were housed under standard conditions with temperature and light control (12-h-light/12-h-dark cycle) and had free access to water and food. For the tumor model, HT-1080-FAP or HT-1080 cells (5 × 10^6) were subcutaneously injected into the right or left flank of nude mice, respectively. As the tumor diameter reached 3–4 mm, mice were treated with radioligands. Micro-PET and SPECT imaging studies, as well as biodistribution, were conducted when the tumor diameter reached 5–10 mm.
Radionuclide therapy was performed when the diameter of HT-1080-FAP xenografts reached 3–4 mm. The mice were randomly divided into 4 groups (n = 4) and intravenously injected with [^177Lu]21 (24.05 MBq), [^177Lu]21 (9.25 MBq), [^177Lu]Lu-FAPI-04 (24.05 MBq) and saline, respectively. Tumor volume (volume = length × width^2/2) and mouse weight were measured every 2–3 d. Endpoint criteria were defined as weight loss of more than 15%, tumor volume greater than 1500 mm^3, or active ulcerations of the tumor. […]

[3] = tested on: HT-1080-FAP tumor-bearing mice; test: biodistribution in HT-1080-FAP tumor-bearing mice; assay type: in vivo, BALB/C-nu/nu mice; details: i.v.
Experimental: as §2
[^177Lu]21 (~ 0.925 MBq) was injected via the tail vein of HT-1080-FAP tumor-bearing mice. The animals were sacrificed at 4, 24, 48 and 96 h pi. Organs of interest were dissected, weighed and counted with a γ-counter. The data were normalized to percentage injected dose (%ID/g) with standard dilution of the initial dose. The biodistribution of [^177Lu]Lu-FAPI-04 was conducted at 24 h pi for comparison.

[4] = in vivo stability in ICR mice, blood samples (radio-HPLC)
Experimental: as §1

CC(C)(C)[Si](F)(c1ccc(C(=O)NCC(NC(=O)CCC(C(=O)O)N2CCN(CC(=O)[O-])CCN(CC(=O)[O-])CCN(CC(=O)[O-])CC2)C(=O)NCC2CCC(C(=O)NCCCOc3ccc4nccc(C(=O)NCC(=O)N5CC(F)(F)CC5C#N)c4c3)CC2)cc1)C(C)(C)C.[177Lu+3] (centres unmarked) [[^177Lu]21]
RCP after incubating in saline and serum ([1]; 8 days, 37 °C): > 90% | in vitro stability ([1]; as summarised in discussion): > 90% | suppression of tumor growth versus control ([2]; 9.25 MBq i.v.): no statistically significant difference in comparison to control | average relative tumor volume ([2]; 24.05 MBq i.v., end of study): 4.55 | Tumor/ Kidney ratio ([3]; 4 h pi): 2.15 ± 0.55 | Tumor/Blood ratio ([3]; 4 h pi): 2.63 ± 0.23 | Tumor/Liver ratio ([3]; 4 h pi): 3.98 ± 1.00 | Tumor/Muscle ratio ([3]; 4 h pi): 6.36 ± 0.27 | uptake in HT-1080-FAP tumor ([3]; 4 h pi): 9.82 ± 1.35 %ID/g | uptake in blood ([3]; 4 h pi): 3.73 ± 0.36 %ID/g | uptake in bone ([3]; 4 h pi): 6.76 ± 0.51 %ID/g | uptake in brain ([3]; 4 h pi): 0.14 ± 0.01 %ID/g | uptake in heart ([3]; 4 h pi): 1.97 ± 0.09 %ID/g | uptake in intestine ([3]; 4 h pi): 2.12 ± 0.5 %ID/g | uptake in kidney ([3]; 4 h pi): 4.70 ± 0.89 %ID/g | uptake in liver ([3]; 4 h pi): 2.56 ± 0.57 %ID/g | uptake in lung ([3]; 4 h pi): 3.33 ± 0.97 %ID/g | uptake in muscle ([3]; 4 h pi): 1.54 ± 0.14 %ID/g | uptake in pancreas ([3]; 4 h pi): 4.03 ± 0.93 %ID/g | uptake in skin ([3]; 4 h pi): 3.60 ± 0.56 %ID/g | uptake in spleen ([3]; 4 h pi): 1.53 ± 0.25 %ID/g | uptake in stomach ([3]; 4 h pi): 1.80 ± 0.52 %ID/g | Tumor/ Kidney ratio ([3]; 24 h pi): 1.73 ± 0.32 | Tumor/Blood ratio ([3]; 24 h pi): 13.77 ± 4.99 | Tumor/Liver ratio ([3]; 24 h pi): 1.84 ± 0.41 | Tumor/Muscle ratio ([3]; 24 h pi): 7.03 ± 1.39 | uptake in HT-1080-FAP tumor ([3]; 24 h pi): 2.98 ± 0.98 %ID/g | uptake in blood ([3]; 24 h pi): 0.22 ± 0.03 %ID/g | uptake in bone ([3]; 24 h pi): 2.46 ± 0.74 %ID/g | uptake in brain ([3]; 24 h pi): 0.02 ± 0.00 %ID/g | uptake in heart ([3]; 24 h pi): 0.61 ±0.43 %ID/g | uptake in intestine ([3]; 24 h pi): 0.37 ± 0.03 %ID/g | uptake in kidney ([3]; 24 h pi): 1.72 ± 0.45 %ID/g | uptake in liver ([3]; 24 h pi): 1.63 ± 0.44 %ID/g | uptake in lung ([3]; 24 h pi): 0.46 ± 0.11 %ID/g | uptake in muscle ([3]; 24 h pi): 0.42 ± 0.09 %ID/g | uptake in pancreas ([3]; 24 h pi): 0.69 ± 0.14 %ID/g | uptake in skin ([3]; 24 h pi): 1.07 ± 0.32 %ID/g | uptake in spleen ([3]; 24 h pi): 0.69 ± 0.13 %ID/g | uptake in stomach ([3]; 24 h pi): 0.39 ± 0.11 %ID/g | Tumor/ Kidney ratio ([3]; 48 h pi): 1.60 ± 0.19 | Tumor/Blood ratio ([3]; 48 h pi): 56.58 ± 6.63 | Tumor/Liver ratio ([3]; 48 h pi): 3.66 ± 0.52 | Tumor/Muscle ratio ([3]; 48 h pi): 11.31 ± 1.41 | uptake in HT-1080-FAP tumor ([3]; 48 h pi): 2.43 ± 0.04 %ID/g | uptake in blood ([3]; 48 h pi): 0.04 ± 0.01 %ID/g | uptake in bone ([3]; 48 h pi): 3.09 ± 0.86 %ID/g | uptake in heart ([3]; 48 h pi): 0.27 ± 0.05 %ID/g | uptake in intestine ([3]; 48 h pi): 0.12 ± 0.02 %ID/g | uptake in kidney ([3]; 48 h pi): 1.53 ± 0.21 %ID/g | uptake in liver ([3]; 48 h pi): 0.67 ± 0.11 %ID/g | uptake in lung ([3]; 48 h pi): 0.53 ± 0.4 %ID/g | uptake in muscle ([3]; 48 h pi): 0.22 ± 0.03 %ID/g | uptake in pancreas ([3]; 48 h pi): 0.35 ± 0.04 %ID/g | uptake in skin ([3]; 48 h pi): 0.58 ± 0.09 %ID/g | uptake in spleen ([3]; 48 h pi): 0.81 ± 0.18 %ID/g | uptake in stomach ([3]; 48 h pi): 0.32 ± 0.04 %ID/g | Tumor/ Kidney ratio ([3]; 96 h pi): 1.11 ± 0.04 | Tumor/Blood ratio ([3]; 96 h pi): 102.33 ± 11.24 | Tumor/Liver ratio ([3]; 96 h pi): 0.93 ± 0.01 | Tumor/Muscle ratio ([3]; 96 h pi): 9.0 ± 1.35 | uptake in HT-1080-FAP tumor ([3]; 96 h pi): 1.02 ± 0.11 %ID/g | uptake in blood ([3]; 96 h pi): 0.01 ± 0.00 %ID/g | uptake in bone ([3]; 96 h pi): 3.02 ± 0.69 %ID/g | uptake in brain ([3]; 96 h pi): 0.01 ± 0.00 %ID/g | uptake in heart ([3]; 96 h pi): 0.16 ± 0.03 %ID/g | uptake in intestine ([3]; 96 h pi): 0.11 ± 0.01 %ID/g | uptake in kidney ([3]; 96 h pi): 0.92 ± 0.13 %ID/g | uptake in liver ([3]; 96 h pi): 1.10 ± 0.12 %ID/g | uptake in lung ([3]; 96 h pi): 0.57 ± 0.34 %ID/g | uptake in muscle ([3]; 96 h pi): 0.12 ± 0.03 %ID/g | uptake in pancreas ([3]; 96 h pi): 0.15 ± 0.03 %ID/g | uptake in skin ([3]; 96 h pi): 0.35 ± 0.05 %ID/g | uptake in spleen ([3]; 96 h pi): 0.43 ± 0.07 %ID/g | uptake in stomach ([3]; 96 h pi): 0.20 ± 0.01 %ID/g | metabolization in blood samples (radio-HPLC) ([4]; ICR mice, within 9 h pi): little evidence of any metabolization | in vivo stability ([4]; as summarised in discussion): > 90%
